# From patent publication US20240239755A1, “SUBSTITUTED PYRIDAZINONES, SALTS OR N-OXIDES THEREOF AND THEIR USE AS HERBICIDALLY ACTIVE SUBSTANCES” (Bayer Aktiengesellschaft, priority 2021, published 2024)
# Key:
# Type in all cases: in vivo
# Lolium rigidum (LOLRI) [1] = test: Herbicidal post-emergence action, 1280 g/ha (Table B5); conditions: visual assessment after ca. 3 weeks vs untreated controls
# Method in brief: (§1)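 Weeds grown in sandy loam under controlled conditions were sprayed post-emergence at the single-leaf stage, 2 to 3 weeks after sowing, with WP or EC formulations plus 0.5% additive at 600 L water/ha. Visual % damage versus untreated controls was scored after ca. 3 weeks in the greenhouse.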
# Stellaria media (STEME) [2] = test: Herbicidal pre-emergence action, 1280 g/ha (Table A9); conditions: visual grading after ca. 3 weeks vs untreated controls
# Method in brief: (§2)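 Weed seeds sown in sandy loam pots and covered with soil; compounds formulated as WP or EC applied to the soil surface in water with 0.5% additive at 600 L water/ha. Pots kept in a greenhouse under optimum growth conditions; damage visually graded after ca. 3 weeks versus untreated controls (0% = as control, 100% = plants dead).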
# [3] = system: Amaranthus retroflexus (AMARE); test: Herbicidal pre-emergence action, 1280 g/ha (Table A11); conditions: visual grading after ca. 3 weeks vs untreated controls
# Method in brief: as §2
# [4] = system: Amaranthus retroflexus (AMARE); test: Herbicidal pre-emergence action, 320 g/ha, AMARE; conditions: visual grading after ca. 3 weeks
# Description: (§3) Seeds of mono- and dicotyledonous weed plants were sown in plastic pots (double sowings with one species of mono- and one species of dicotyledonous weed plants per pot), in sandy loam, and covered with soil. The compounds according to the invention, formulated in the form of wettable powders (WP) or as emulsifiable concentrates (EC), were applied to the surface of the covering soil as an aqueous suspension or as an emulsion, with the addition of 0.5% of an additive, at an application rate of 600 litres of water per hectare (converted). Following treatment, the pots were placed in a greenhouse and kept under optimum growth conditions for the test plants. The visual grading of the damage to the test plants was carried out after ca. 3 weeks in comparison to untreated controls (herbicidal effect in percent (%): 100% effect=plants have died, 0% effect=as control plants).
# Tables C1 to C6 below, show the effects of selected compounds of the general formula (I) according to Table 1 on various harmful plants using an application rate corresponding to 320 g/ha obtained by the experimental procedure mentioned above.
# Veronica persica (VERPE) [5] = test: Herbicidal post-emergence action, 320 g/ha, VERPE; conditions: visual grading after ca. 3 weeks
# Method in brief: (§4)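 Weeds were sown in sandy loam pots and sprayed post-emergence at the single-leaf stage, 2 to 3 weeks after sowing, with WP or EC formulations in water plus 0.5% additive at 600 L/ha. Visual % injury versus untreated controls was scored after ca. 3 weeks in the greenhouse.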
# [6] = system: Abutilon theophrasti (ABUTH); test: Herbicidal post-emergence action, 1280 g/ha (Table B1); conditions: visual assessment after ca. 3 weeks vs untreated controls
# Method in brief: as §1
# Kochia scoparia (KCHSC) [7] = test: Herbicidal post-emergence action, 320 g/ha, KCHSC; conditions: visual grading after ca. 3 weeks
# Method in brief: as §4
# Stellaria media (STEME) [8] = test: Herbicidal post-emergence action, 320 g/ha, STEME; conditions: visual grading after ca. 3 weeks
# Method in brief: as §4
# [9] = system: Matricaria inodora (MATIN); test: Herbicidal post-emergence action, 1280 g/ha (Table B6); conditions: visual assessment after ca. 3 weeks vs untreated controls
# Method in brief: as §1
# Kochia scoparia (KCHSC) [10] = test: Herbicidal post-emergence action, 1280 g/ha (Table B4); conditions: visual assessment after ca. 3 weeks vs untreated controls
# Method in brief: as §1
# [11] = system: Amaranthus retroflexus (AMARE); test: Herbicidal post-emergence action, 320 g/ha, AMARE; conditions: visual grading after ca. 3 weeks
# Method in brief: as §4
# Poa annua (POAAN) = test: Herbicidal pre-emergence action, 1280 g/ha (Table A7); conditions: visual grading after ca. 3 weeks vs untreated controls
# Description: as §3, with “plants). Tables A1 to A11 below, show the effects of selected compounds of the general formula (I) according to Table 1 on various harmful plants and an application rate corresponding to 1280 g/ha obtained by the experimental procedure mentioned above.” for “plants).”
# [12] = system: Amaranthus retroflexus (AMARE); test: Herbicidal post-emergence action, 1280 g/ha, AMARE; conditions: visual grading vs untreated controls
# Method in brief: (§5)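 Pot-grown weeds in sandy loam sprayed post-emergence at the single-leaf stage, 2–3 weeks after sowing, with WP or EC formulations plus 0.5% additive in 600 L water/ha at 1280 g/ha. After ca. 3 weeks in the greenhouse, damage scored visually as % effect versus untreated controls (100% = plants dead).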
# Stellaria media (STEME) [13] = test: Herbicidal post-emergence action, 1280 g/ha (Table B9); conditions: visual assessment after ca. 3 weeks vs untreated controls
# Method in brief: as §1
# Lolium rigidum (LOLRI) [14] = test: Herbicidal pre-emergence action, 1280 g/ha (Table A5); conditions: visual grading after ca. 3 weeks vs untreated controls
# Method in brief: as §2
# Veronica persica (VERPE) [15] = test: Herbicidal post-emergence action, 1280 g/ha, VERPE; conditions: visual grading vs untreated controls
# Method in brief: as §5
# Setaria viridis (SETVI) [16] = test: Herbicidal pre-emergence action, 1280 g/ha (Table A8); conditions: visual grading after ca. 3 weeks vs untreated controls
# Description: as §3, with “plants). Tables A1 to A11 below, show the effects of selected compounds of the general formula (I) according to Table 1 on various harmful plants and an application rate corresponding to 1280 g/ha obtained by the experimental procedure mentioned above.” for “plants).”
# [17] = system: Abutilon theophrasti (ABUTH); test: Herbicidal pre-emergence action, 1280 g/ha (Table A1); conditions: visual grading after ca. 3 weeks vs untreated controls
# Method in brief: as §2
# [18] = system: Matricaria inodora (MATIN); test: Herbicidal post-emergence action, 320 g/ha, MATIN; conditions: visual grading after ca. 3 weeks
# Method in brief: as §4
# Stellaria media (STEME) [19] = test: Herbicidal pre-emergence action, 320 g/ha, STEME; conditions: visual grading after ca. 3 weeks
# Method in brief: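 Weed seeds sown in sandy loam pots; WP or EC formulations applied pre-emergence to the covering soil surface at 320 g/ha with 0.5% additive in 600 L water/ha. Greenhouse growth; visual damage scored after ca. 3 weeks versus untreated controls (100% = plants died, 0% = as control).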
# [20] = system: Matricaria inodora (MATIN); test: Herbicidal pre-emergence action, 1280 g/ha (Table A6); conditions: visual grading after ca. 3 weeks vs untreated controls
# Method in brief: as §2
# [21] = system: Matricaria inodora (MATIN); test: Herbicidal pre-emergence action, 320 g/ha (Table C3); conditions: visual grading after ca. 3 weeks vs untreated controls
# Description: as §3, with “plants). Tables C1 to C6 below, show the effects of selected compounds of the general formula (I) according to Table 1 on various harmful plants using an application rate corresponding to 320 g/ha obtained by the experimental procedure mentioned above.” for “plants).”
# Kochia scoparia (KCHSC) [22] = test: Herbicidal pre-emergence action, 1280 g/ha (Table A4); conditions: visual grading after ca. 3 weeks vs untreated controls
# Method in brief: as §2
# [23] = system: Abutilon theophrasti (ABUTH); test: Herbicidal post-emergence action, 320 g/ha, ABUTH; conditions: visual grading after ca. 3 weeks
# Method in brief: as §4
# Lolium rigidum (LOLRI) [24] = test: Herbicidal pre-emergence action, 320 g/ha (Table C2); conditions: visual grading after ca. 3 weeks vs untreated controls
# Method in brief: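 Applied pre-emergence to the surface of soil covering weed seeds sown in sandy loam, as WP or EC formulations in water with 0.5% additive at 600 L/ha. Greenhouse-grown; damage graded visually at ca. 3 weeks as percent of untreated controls (100% = plants died).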
# Setaria viridis (SETVI) [25] = test: Herbicidal post-emergence action, 1280 g/ha (Table B8); conditions: visual assessment after ca. 3 weeks vs untreated controls
# Description: (§6) Seeds of mono- and dicotyledonous weed plants were sown in plastic pots (double sowings with one species of mono- and one species of dicotyledonous weed plants per pot), in sandy loam, covered with soil and grown under controlled growth conditions. 2 to 3 weeks after sowing, the test plants were sprayed in the single-leaf stage. The compounds according to the invention, formulated in the form of wettable powders (WP) or as emulsifiable concentrates (EC), were sprayed onto the green plant parts as an aqueous suspension or as an emulsion, with the addition of 0.5% of an additive, at an application rate of 600 litres of water per hectare (converted). The test plants were placed in the greenhouse for ca. 3 weeks under optimum growth conditions, and then the effect of the preparations was assessed visually in comparison with untreated controls (herbicidal effect in percent (%): 100% effect=plants have died, 0% effect=as control plants). Tables B1 to B11 below, show the effects of selected compounds of the general formula (I) according to Table 1 on various harmful plants using an application rate corresponding to 1280 g/ha obtained by the experimental procedure mentioned above.
# Lolium rigidum (LOLRI) [26] = test: Herbicidal post-emergence action, 320 g/ha, LOLRI; conditions: visual grading after ca. 3 weeks
# Description: as §6, with “plants).” for “plants). Tables B1 to B11 below, show the effects of selected compounds of the general formula (I) according to Table 1 on various harmful plants using an application rate corresponding to 1280 g/ha obtained by the experimental procedure mentioned above.”
# Tables D1 to D8 below, show the effects of selected compounds of the general formula (I) according to Table 1 on various harmful plants using an application rate corresponding to 320 g/ha obtained by the experimental procedure mentioned above.
SMILES,herbicidal effect LOLRI (Lolium rigidum (LOLRI) [1]) [%],herbicidal effect STEME (Stellaria media (STEME) [2]) [%],herbicidal effect AMARE [3] [%],herbicidal effect AMARE [4] [%],herbicidal effect ABUTH [6] [%],herbicidal effect KCHSC (Kochia scoparia (KCHSC) [7]) [%],herbicidal effect STEME (Stellaria media (STEME) [8]) [%],herbicidal effect MATIN [9] [%],herbicidal effect KCHSC (Kochia scoparia (KCHSC) [10]) [%],herbicidal effect AMARE [11] [%],herbicidal effect POAAN (Poa annua (POAAN)) [%],herbicidal effect AMARE [12] [%],herbicidal effect STEME (Stellaria media (STEME) [13]) [%],herbicidal effect LOLRI (Lolium rigidum (LOLRI) [14]) [%],herbicidal effect VERPE (Veronica persica (VERPE) [15]) [%],herbicidal effect SETVI (Setaria viridis (SETVI) [16]) [%],herbicidal effect ABUTH [17] [%],herbicidal effect STEME (Stellaria media (STEME) [19]) [%],herbicidal effect MATIN [20] [%],herbicidal effect LOLRI (Lolium rigidum (LOLRI) [24]) [%],also measured
Cc1nn(C)c(=O)c(Oc2ccccc2Cl)c1O [Example I-003],90,100,90,90,90,90,90,100,100,90,90,100,100,100,100,,,,,,herbicidal effect VERPE (Veronica persica (VERPE) [5]): 100%
Cc1nn(C)c(=O)c(Oc2ccccc2C2CC2)c1O [Example I-014],90,100,100,90,,100,100,90,100,90,90,90,100,100,90,90,90,100,100,,herbicidal effect MATIN [18]: 90%
Cc1nn(C)c(=O)c(Oc2cc(Cl)cc(Cl)c2)c1O [Example I-027],,100,,,90,,90,,90,90,,100,90,100,90,,100,100,100,,herbicidal effect MATIN [21]: 100%; herbicidal effect KCHSC (Kochia scoparia (KCHSC) [22]): 90%; herbicidal effect ABUTH [23]: 90%
Cc1nn(C)c(=O)c(Oc2ccc(F)cc2C2CC2)c1O [Example I-033],,90,90,90,90,,,90,90,90,,100,90,100,90,,,,,100,herbicidal effect ABUTH [23]: 90%
Cc1nn(C)c(=O)c(Oc2cc(Cl)ccc2Br)c1OC(=O)C(C)C [Example I-092],90,100,100,90,,,90,90,,,,90,100,100,,90,90,90,100,100,herbicidal effect SETVI (Setaria viridis (SETVI) [25]): 90%
Cc1nn(C)c(=O)c(Oc2cc(Cl)ccc2Cl)c1OC(=O)C(C)C [Example I-095],90,100,100,90,,,90,90,,,,90,90,100,,,,90,90,90,herbicidal effect LOLRI (Lolium rigidum (LOLRI) [26]): 90%
